Data: patent publication US5418232A, “Diazabicycloalkene derivatives” (Daiichi Pharmaceutical Co., Ltd., priority 1992, dated 1995)

Tests used:
Potassium channel = biological target: T1, Potassium channel (Rattus norvegicus, UniProt Q63563); assay: Potassium channel opening activity, 86Rb release from excised rat aorta segment; format: cell-based, Wistar rat; conditions: for potassium channel opening activity (in words): conclusion from Table 5; for ECAUC0.2 (effective concentration at which the area under the peak of the 86Rb release rate reached 0.2): rat aorta segment surface-perfused with test compound for 10 minutes
T1 construct: a segment of an excised aorta of a Wistar rat; from tissue; host or cells: excised aorta segment of Wistar rat

[1] = system: spontaneously hypertensive rats; assay: Antihypertensive activity in spontaneously hypertensive rats (oral, tail-cuff); format: in vivo, rat; conditions: for ED (50 mmHg): Rattus norvegicus, systolic blood pressure, read-out: ED50mmHg (effective dose for reducing blood pressure by 50 mmHg); for Max. increase of Heat Rate / Time for Onset of Max. Activity: dose reducing blood pressure by 50 to 60 mmHg
Procedure: Male spontaneously hypertensive rats (16 to 20-week-old; body weight: 300-400 g) fed ab lib. were forceably given oral administration of a test compound suspended in 0.5% (w/v) carboxymethyl cellulose aqueous solution. After 1, 2, 4, 6, 8, 24, 30 or 48 hours from the administration, the systolic blood pressure was measured by a tail-cuff method described in Arzneimittel-Forschung, Vol. 18, pp. 1285-1287 (1968)).
The antihypertensive activity of the test compound was obtained as an effective dose for reducing blood pressure by 50 mmHg (ED50mmHg). Further, the time of onset of the maximum activity and the maximum increase in heart rate at a dose for reducing blood pressure by 50 to 60 mmHg were measured.
The statistical difference between a test compound and EMD57283 was analyzed by the Student's t-test.

[2] = system: spontaneously hypertensive rats; assay: Effect on renal blood flow (Doppler probe); format: in vivo, rat; conditions: for Increase in Renal Blood Flow 1 Hr after Administration: oral, dose which reduced blood pressure by about 50 mmHg; for activity in increasing the renal blood flow vs reference drug (in words): vs EMD57283
Procedure: Twenty-week-old male spontaneously hypertensive rats (body weight: 350-430 g) were anesthetized with pentobarbital (30 mg/kg, i.p.). An incision was made in the abdomen on the left side, and a Doppler probe for blood flow measurement was fitted to the left renal artery, and the code (wire lead) of the probe was passed under the back skin and taken out from the back of the neck. After 1 week from the operation, the code of the probe was connected to a Doppler blood flow meter to start measurement of the renal blood flow. After the renal blood flow reached to a steady state, a test compound was orally administered, and changes in renal blood flow were observed up to 9 hours. The test compound was used at a dose which reduced blood pressure by about 50 mmHg.

Guinea Pig Tracheae = assay: Relaxing activity in guinea pig tracheae contracted with 30 mM potassium chloride; format: cell-based; conditions: for EC50: Cavia porcellus, relaxation by 10^-8 g/ml isoproterenol as 100%, read-out: EC50 (concentration inducing 50% relaxation)
Procedure: Male guinea pigs (body weight: 400-650 g) were sacrificed by exsanguination, and tracheae were excised.
Tracheal responses were measured isometrically using a transducer "EF-601G" (manufactured by Nihon Koden Kogyo Co., Ltd.) and recorded on a multi-pen recorder "R64 GP" (manufactured by Rika Denki Co., Ltd.). The initial tension in the tracheal preparation was set up at 1 g after the preparation had equilibrated for about 60 minutes, a 30 mM potassium chloride was added to cause contraction.

male HOS-Donryu rats = assay: Antianginal activity, vasopressin-induced ST segment depression; format: in vivo, rat; conditions: for S Value (area of ST segment depression over 5 minutes): i.v., Example 47 0.01, Nifedipine 0.03, Cromakalim 0.01 mg/kg, vasopressin 0.5 U/kg
Procedure: The test was carried out in accordance with the method of Hiramatsu, et al. (see Japanese Journal of Pharmacology, Vol. 20, p. 313 (1970)). […] A cannula for blood pressure measurement was inserted into the left femoral artery, and a cannula for drug administration was inserted into the left femoral vein. […] Then, ECG was taken every 30 seconds over a period of 5 minutes to observe depression of the ST segment. A control group was given the solvent for the drug (a solution in which 5% dimethyl sulfoxide, 5% polyethylene glycol 200 and 1% cremophor were dissolved in physiological saline).

T1 sequence (Q63563 1-1545 isoform Q63563-2): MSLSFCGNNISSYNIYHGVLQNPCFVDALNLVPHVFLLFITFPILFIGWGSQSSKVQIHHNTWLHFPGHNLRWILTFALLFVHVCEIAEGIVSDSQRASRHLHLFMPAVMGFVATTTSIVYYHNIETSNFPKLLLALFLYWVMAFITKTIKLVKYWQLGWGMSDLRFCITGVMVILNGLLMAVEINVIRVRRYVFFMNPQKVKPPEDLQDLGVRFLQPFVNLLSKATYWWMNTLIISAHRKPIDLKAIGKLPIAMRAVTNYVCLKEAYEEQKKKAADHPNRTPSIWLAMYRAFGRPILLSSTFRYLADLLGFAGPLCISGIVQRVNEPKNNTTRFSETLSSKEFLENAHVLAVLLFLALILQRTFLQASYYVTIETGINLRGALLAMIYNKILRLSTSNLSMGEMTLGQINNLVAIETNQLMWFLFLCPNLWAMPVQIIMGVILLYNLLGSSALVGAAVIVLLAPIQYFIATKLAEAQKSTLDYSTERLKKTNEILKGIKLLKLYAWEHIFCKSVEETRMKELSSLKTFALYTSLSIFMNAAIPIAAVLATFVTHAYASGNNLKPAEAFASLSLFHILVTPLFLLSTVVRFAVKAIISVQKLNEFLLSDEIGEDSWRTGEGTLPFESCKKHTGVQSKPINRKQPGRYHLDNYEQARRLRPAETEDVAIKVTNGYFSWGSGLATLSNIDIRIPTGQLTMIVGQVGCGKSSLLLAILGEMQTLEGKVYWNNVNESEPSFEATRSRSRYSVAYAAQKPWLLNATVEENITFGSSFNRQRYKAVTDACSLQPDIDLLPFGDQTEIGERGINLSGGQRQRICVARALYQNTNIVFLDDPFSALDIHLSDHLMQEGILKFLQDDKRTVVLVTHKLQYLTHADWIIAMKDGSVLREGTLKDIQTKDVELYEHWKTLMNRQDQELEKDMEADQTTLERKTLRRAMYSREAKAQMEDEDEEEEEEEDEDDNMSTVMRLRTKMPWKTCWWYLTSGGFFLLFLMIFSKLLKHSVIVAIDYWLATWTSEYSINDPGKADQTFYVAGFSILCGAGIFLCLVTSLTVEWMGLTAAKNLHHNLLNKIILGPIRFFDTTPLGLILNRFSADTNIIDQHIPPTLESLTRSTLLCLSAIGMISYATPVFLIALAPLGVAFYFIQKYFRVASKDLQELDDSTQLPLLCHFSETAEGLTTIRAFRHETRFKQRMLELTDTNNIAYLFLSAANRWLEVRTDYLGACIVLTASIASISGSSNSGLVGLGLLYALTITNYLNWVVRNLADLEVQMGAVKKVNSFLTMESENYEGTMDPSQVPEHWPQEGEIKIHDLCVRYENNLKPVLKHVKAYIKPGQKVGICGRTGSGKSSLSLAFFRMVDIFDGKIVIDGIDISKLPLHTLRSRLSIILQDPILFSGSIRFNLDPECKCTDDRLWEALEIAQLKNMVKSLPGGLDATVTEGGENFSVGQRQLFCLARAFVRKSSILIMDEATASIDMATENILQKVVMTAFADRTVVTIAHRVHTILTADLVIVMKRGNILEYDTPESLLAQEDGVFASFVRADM
T1 sequence (Q63664 whole entry partner, the tested form may be a part): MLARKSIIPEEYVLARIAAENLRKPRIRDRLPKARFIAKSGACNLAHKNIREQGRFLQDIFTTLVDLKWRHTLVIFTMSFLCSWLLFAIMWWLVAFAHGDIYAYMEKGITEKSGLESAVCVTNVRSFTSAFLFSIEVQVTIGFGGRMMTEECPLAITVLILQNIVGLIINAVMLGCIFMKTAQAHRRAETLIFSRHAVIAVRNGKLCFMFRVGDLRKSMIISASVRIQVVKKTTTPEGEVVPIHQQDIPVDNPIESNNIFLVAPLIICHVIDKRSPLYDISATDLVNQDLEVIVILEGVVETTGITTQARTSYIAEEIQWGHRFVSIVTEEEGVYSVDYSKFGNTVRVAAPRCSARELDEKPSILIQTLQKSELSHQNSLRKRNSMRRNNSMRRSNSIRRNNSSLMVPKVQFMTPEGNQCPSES

ECAUC0.2 (effective concentration at which the area under the peak of the 86Rb release rate reached 0.2) (Potassium channel)	EC50 (Guinea Pig Tracheae)	SMILES	potassium channel opening activity (in words) (Potassium channel)	antihypertensive activity (in words) [1]	duration of activity (in words) [1]	ED (50 mmHg) [1]	Max. increase of Heat Rate [1]	Time for Onset of Max. Activity [1]	Increase in Renal Blood Flow 1 Hr after Administration [2]	activity in increasing the renal blood flow vs reference drug (in words) [2]	activity in relaxing tracheal smooth muscle vs cromakalim (in words) (Guinea Pig Tracheae)	S Value (area of ST segment depression over 5 minutes) (male HOS-Donryu rats)	antianginal activity (in words) (male HOS-Donryu rats; 0.01 mg/kg i.v.)
–	–	CC1(C)Oc2ccc(C#N)cc2[C@@H](OC2=NN(Cc3c(Cl)cccc3Cl)C(=O)C3CC23)[C@@H]1O (relative stereo) [Example 36, (3S,4R,1'R*,6'S*)-4-(3-(2,6-dichlorobenzyl)-2-oxo-3,4-diazabicyclo[4.1.0]hept-4-en-5-yloxy)-3,4-dihydro-2,2-dimethyl-3-hydroxy-2H-1-benzopyran-6-carbonitrile]	–	potent antihypertensive activity	long duration of activity	0.4 mg/kg	9.6 ± 1.3%	6.8 ± 0.5 h	15.4 ± 4.5%	more potent activity in increasing the renal blood flow than the reference drug	–	–	–
–	–	CC1(C)Oc2ccc(C#N)cc2[C@@H](OC2=NN(Cc3ccc(Cl)cc3Cl)C(=O)C3CC23)[C@@H]1O (relative stereo) [Example 37, (3S,4R,1'R*,6'S*)-4-(3-(2,4-dichlorobenzyl)-2-oxo-3,4-diazabicyclo[4.1.0]hept-4-en-5-yloxy)-3,4-dihydro-2,2-dimethyl-3-hydroxy-2H-1-benzopyran-6-carbonitrile]	–	potent antihypertensive activity	long duration of activity	0.035 mg/kg	9.2 ± 1.7%	7.6 ± 0.4 h	–	–	–	–	–
–	5 µM	CCCCN1N=C(O[C@@H]2c3cc(C#N)ccc3OC(C)(C)[C@H]2O)C2CC2C1=O (relative stereo) [Example 32, (3S,4R,1'R*,6'S*)-4-(3-n-butyl-2-oxo-3,4-diazabicyclo(4.1.0]hept-4-en-5-yloxy)-3,4-dihydro-2,2-dimethyl-3-hydroxy-2H-1-benzopyran-6-carbonitrile]	–	potent antihypertensive activity	long duration of activity	0.076 mg/kg	22.3 ± 5.9%	6.0 ± 0.6 h	–	–	more potent activity in relaxing tracheal smooth muscle than cromakalim	–	–
0.16	–	Cn1nc(O[C@@H]2c3cc(C#N)ccc3OC(C)(C)[C@H]2O)ccc1=O [EMD57283, (3S,4R)3,4-Dihydro-4-((1,6-dihydro-1-methyl-6-oxo-3-pyridazinyl)oxy)-2,2-imethyl-3-hydroxy-2H-1-benzopyran-6-carbonitrile, reference compound]	–	–	–	0.0064 mg/kg	41.3 ± 2.8%	2.8 ± 0.7 h	10.8 ± 4.1%	–	–	–	–
0.18	5.5 µM	C=CCN1N=C(O[C@@H]2c3cc(C#N)ccc3OC(C)(C)[C@H]2O)C2CC2C1=O (relative stereo) [Example 23, (3S,4R,1'R*,6'S*)-4-(3-allyl-2-oxo-3,4-diazabicyclo[4.1.0]hept-4-en-5-yloxy)-3,4-dihydro-2,2-dimethyl-3-hydroxy-2H-1-benzopyran-6-carbonitrile]	possesses potassium channel opening activity	–	–	–	–	–	–	–	more potent activity in relaxing tracheal smooth muscle than cromakalim	–	–
–	–	CC1(C)Oc2ccc(C#N)cc2[C@@H](OC2=NN(Cc3ccccc3)C(=O)[C@H]3C[C@@H]23)[C@@H]1O [Example 21, (3S, 4R, 1'S, 6'R)-4-(3-Benzyl-2-oxo-3,4-diazabicyclo[4.1.0]hept-4-en-5-yloxy)-3,4-dihydro-2,2-dimethyl-3-hydroxy-2H-1-benzopyran-6-carbonitrile]	–	potent antihypertensive activity	long duration of activity	0.053 mg/kg	19.7 ± 3.0%	6.4 ± 0.5 h	59.4 ± 9.7%	more potent activity in increasing the renal blood flow than the reference drug	–	–	–
–	–	C#CCN1N=C(O[C@@H]2c3cc(C#N)ccc3OC(C)(C)[C@H]2O)C2CC2C1=O (relative stereo) [Example 24, (3S, 4R, 1'R*,6'S*)-3,4-dihydro-2,2-dimethyl-3-hydroxy-4-(2-oxo-3-(2-propyn-1-yl)-3,4-diazabicyclo[4.1.D]hept-4-en-5-yloxy)-2H-1-benzopyran-6-carbonitrile]	–	potent antihypertensive activity	long duration of activity	0.02 mg/kg	22.2 ± 2.3%	5.6 ± 1.2 h	–	–	–	–	–
0.021	–	CN1N=C(O[C@@H]2c3cc(C#N)ccc3OC(C)(C)[C@@]2(C)O)C2CC2C1=O (relative stereo) [Example 56, (3S,4R,1'R*,6'S*)-3,4-Dihydro-3-hydroxy-4-(3-methyl-2-oxo-3,4-diazabicyclo[4.1.0]hept-4-en-5-yloxy)-2,2,3-trimethyl-2H-1-benzopyran-6-carbonitrile]	possesses potassium channel opening activity	potent antihypertensive activity	long duration of activity	0.0023 mg/kg	19.2 ± 0.5%	6.4 ± 0.4 h	–	–	–	–	–
–	3 µM	CC(C)=CCN1N=C(O[C@@H]2c3cc(C#N)ccc3OC(C)(C)[C@H]2O)C2CC2C1=O (relative stereo) [Example 29, (3S,4R,1'R*,6'S*)-3,4-dihydro-2,2-dimethyl-3-hydroxy-4-(3-(3-methyl-2-buten-1-yl)-2-oxo-3,4-diazabicyclo[4.1.0]hept-4-en-5-yloxy)-2H-1-benzopyran-6-carbonitrile]	–	–	–	–	–	–	–	–	more potent activity in relaxing tracheal smooth muscle than cromakalim	–	–
–	–	COC(=O)C1=C(C)NC(C)=C(C(=O)OC)C1c1ccccc1[N+](=O)[O-] [Nifedipine, reference compound]	–	–	–	–	–	–	–	–	–	393 μV.min	–
0.21	–	CC1(C)Oc2ccc(C#N)cc2[C@@H](OC2=NNC(=O)C3CC23)[C@@H]1O (relative stereo) [Example 47, (3S,4R,1'R*,6'S*)-3,4-Dihydro-2,2-dimethyl-3-hydroxy-4-(2-oxo-3,4-diazabicyclo[4.1.0]-hept-4-en-5-yloxy)-2H-1-benzopyran-6-carbonitrile]	possesses potassium channel opening activity	–	–	–	–	–	24.3 ± 13.7%	more potent activity in increasing the renal blood flow than the reference drug	–	109 μV.min	significantly reduces the S value

SMILES	ECAUC0.2 (effective concentration at which the area under the peak of the 86Rb release rate reached 0.2) (Potassium channel)	EC50 (Guinea Pig Tracheae)	potassium channel opening activity (in words) (Potassium channel)	antihypertensive activity (in words) [1]	duration of activity (in words) [1]	ED (50 mmHg) [1]	Max. increase of Heat Rate [1]	Time for Onset of Max. Activity [1]	Increase in Renal Blood Flow 1 Hr after Administration [2]	activity in increasing the renal blood flow vs reference drug (in words) [2]	activity in relaxing tracheal smooth muscle vs cromakalim (in words) (Guinea Pig Tracheae)	S Value (area of ST segment depression over 5 minutes) (male HOS-Donryu rats)	antianginal activity (in words) (male HOS-Donryu rats; 0.01 mg/kg i.v.)
CN1N=C(O[C@@H]2c3cc(C#N)ccc3OC(C)(C)[C@H]2O)C2CC2C1=O (relative stereo) [Example 22, (3S,4R,1'R*,6'S*)-3,4-dihydro-2,2-dimethyl-3-hydroxy-4-(3-methyl-2-oxo-3,4-diazabicyclo(4.1.0]hept-4-en-5-yloxy)-2H-benzopyran-6-carbonitrile]	0.18	–	possesses potassium channel opening activity	–	–	–	–	–	–	–	–	–	–
CC1(C)Oc2ccc(C#N)cc2[C@@H](N2CCCC2=O)[C@@H]1O (relative stereo) [Cromakalim, 3,4trans-3,4-Dihydro-2,2-dimethyl-3-hydroxy-4-(2-oxopyrrolidin-1-yl)-2H-1benzopyran-6-carbonitrile, reference compound]	2.8	49 µM	–	–	–	–	–	–	–	–	–	562 μV.min	–
